Results: patent US5324725A, “7-fused 2-(piperazinoalkyl) indole derivatives, intermediates and compositions thereof” (Kali-Chemie Pharma GmbH, priority 1991, dated 1994)

Assays:
cyclooxygenase = biological target: T1, cyclooxygenase (Mus musculus, UniProt P22437); assay: Cyclooxygenase inhibition: release of 6-keto-PGF1 α from zymosan-stimulated mouse peritoneal macrophage cells; type: cell-based; conditions: 10^-5 mol/l, read-out: In vitro % inhibition effect on the release of 6-keto-PGF1 α
T1 construct: A cell suspension containing peritoneal cells of male mice 8-10 weeks old was obtained; endogenous in cells; host or cells: mouse peritoneal macrophages (male mice 8-10 weeks old), zymosan-stimulated
T1 sequence (P22437 27-602): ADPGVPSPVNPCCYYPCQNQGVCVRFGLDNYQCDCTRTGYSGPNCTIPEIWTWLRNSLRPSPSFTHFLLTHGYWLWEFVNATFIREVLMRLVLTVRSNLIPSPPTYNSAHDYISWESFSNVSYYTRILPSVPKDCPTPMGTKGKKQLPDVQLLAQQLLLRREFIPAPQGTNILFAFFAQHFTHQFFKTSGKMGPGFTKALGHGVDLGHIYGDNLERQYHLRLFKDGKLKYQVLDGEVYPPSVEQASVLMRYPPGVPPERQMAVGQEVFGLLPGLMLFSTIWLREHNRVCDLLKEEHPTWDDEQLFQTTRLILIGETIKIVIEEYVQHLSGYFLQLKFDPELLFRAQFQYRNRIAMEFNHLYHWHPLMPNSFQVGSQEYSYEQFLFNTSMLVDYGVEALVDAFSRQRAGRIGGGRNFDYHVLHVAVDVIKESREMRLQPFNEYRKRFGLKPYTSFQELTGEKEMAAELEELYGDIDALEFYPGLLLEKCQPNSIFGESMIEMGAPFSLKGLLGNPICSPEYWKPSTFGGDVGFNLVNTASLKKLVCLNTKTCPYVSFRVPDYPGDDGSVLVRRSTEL
Source text: (§1) 5. In vitro determination of cyclooxygenase inhibition and 5-lipoxygenase inhibition.
(§2) After activation of the cell, arachidonic acid contained in cell membranes is metabolized in two ways. Leukotrienes, inter alia leukotriene C4, are formed under the action of the enzyme 5-lipoxygenase (5-LO), and prostanoids are formed under the action of the enzyme cyclooxygenase (CO). In in vitro systems, the metabolites are secreted from the cell.
(§3) To investigate the cyclooxygenase-inhibiting and the 5-lipoxygenase-inhibiting properties, the inhibitory effect of the test substances on the biosynthesis of the arachidonic acid derivatives leukotriene C4 (LTC4) and 6-ketoprostaglandin F1 α (6-keto-PGF1 α) is determined in vitro on mouse peritoneal macrophage cells. This was accomplished by determining the LTC4 and 6-keto-PGF1 α contents in a culture medium of mouse peritoneal macrophage cells by zymosan stimulation as described by Scott et al. (J. Exp. Med. 152 (1980), 324-335) and by Fradin et al. (Prostaglandins, 33 (1987), 579-589).
(§4) A cell suspension containing peritoneal cells of male mice 8-10 weeks old was obtained in a known manner. A commercially available cell culture solution (RPMI 1640 from Messrs. Gibco) was used to which heparin (I0 international units/ml) and antibiotics were added according to the recipe of Bonney et al. (Biochem. J. 176 (1978) 422-433). The cell suspension was adjusted to a cell concentration of 10^6 cells per ml and distributed uniformly on titer plates containing […] (wells). These were kept for two hours in a humidified incubator filled with air enriched with 7% CO2. Cells not adhering to the titer cell walls were then removed by washing. The remaining macrophage cells adhering to the walls were incubated for about 12 hours in a suspension medium to which 0.1% bovine serum albumin (BSA) were added. The suspension medium was then replaced by a Hanks balanced salt solution (HBSS) containing 10 mM Hepes (hydroxyethyl-piperazinoethanesulfonic acid), to which a 0.1% strength solution of the test substances in aqueous, 1% strength dimethylformamide or only the solvent had been added. After 15 minutes the arachidonic acid metabolism was stimulated by adding 10 particles of zymosan (=glycoproteinmixture, isolated from cell walls of beer yeast, Saccharomyces cerevisiae, manufactured by Sigma Chemical Co., Munich) per titer cell. After 2 hours, samples of each of the supernatant liquids were investigated for their 6-keto-PGF1 α and LTC4 contents by means of an enzyme immunoassay (EIA) carried out by the method of Pradelles et al. (Analytical Chem. 57 (1985), 1170-1173). The determination of LTC4 and the determination of 6-keto-PGF1 α were each carried out in comparison with a comparative scale on suitable dilutions of the samples (1:50 to 1:250 for the LTC4 determination and 1:250 to 1:1250 for the 6-keto-PGF1 α determination). To determine the inhibitory effect of a 10^-5 molar concentration of the compounds, the amount of reference eicosanoids was determined and the inhibitory effect was calculated from this in % inhibition compared to the measurements of the zymosan controls.

5-lipoxygenase = biological target: T2, 5-lipoxygenase (Mus musculus, UniProt P48999); assay: 5-lipoxygenase inhibition: release of LTC4 from zymosan-stimulated mouse peritoneal macrophage cells; type: cell-based; conditions: 10^-5 mol/l, read-out: In vitro % inhibition effect on the release of LTC4
T2 construct: A cell suspension containing peritoneal cells of male mice 8-10 weeks old was obtained; endogenous in cells; host or cells: mouse peritoneal macrophages (male mice 8-10 weeks old), zymosan-stimulated
T2 sequence (P48999 1-674): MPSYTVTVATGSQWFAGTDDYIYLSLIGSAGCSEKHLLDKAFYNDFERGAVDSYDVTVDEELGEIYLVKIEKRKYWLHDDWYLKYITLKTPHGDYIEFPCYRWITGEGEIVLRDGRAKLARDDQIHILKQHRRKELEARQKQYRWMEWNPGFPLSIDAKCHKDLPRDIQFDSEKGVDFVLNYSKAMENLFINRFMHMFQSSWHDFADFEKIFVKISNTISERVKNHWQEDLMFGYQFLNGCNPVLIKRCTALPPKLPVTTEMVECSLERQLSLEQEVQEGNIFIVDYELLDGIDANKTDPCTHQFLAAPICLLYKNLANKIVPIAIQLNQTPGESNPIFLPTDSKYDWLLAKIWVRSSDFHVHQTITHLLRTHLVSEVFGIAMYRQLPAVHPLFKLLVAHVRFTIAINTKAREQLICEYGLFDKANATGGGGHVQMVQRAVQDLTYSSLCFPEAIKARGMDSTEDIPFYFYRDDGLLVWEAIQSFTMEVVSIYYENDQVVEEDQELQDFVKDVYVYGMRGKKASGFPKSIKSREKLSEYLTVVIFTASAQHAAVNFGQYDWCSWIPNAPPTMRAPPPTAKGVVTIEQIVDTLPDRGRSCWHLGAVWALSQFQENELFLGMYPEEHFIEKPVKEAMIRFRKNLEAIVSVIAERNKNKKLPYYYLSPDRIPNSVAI
Source text: as §1, §2, §3, §4

| inhibition at 10 µM (cyclooxygenase) [%] | inhibition at 10 µM (5-lipoxygenase) [%] | Structure (SMILES) |
| --- | --- | --- |
| 52 | 71 | Cc1ccnc(N2CCN(CCc3c(C)n4c5c(c(Cl)cc(Cl)c35)OCC4)CC2)c1 [Example 79] |
| 21 | 4 | Cc1ccnc(N2CCN(CCc3c(C)n4c5c(cccc35)CC4C)CC2)c1 (stereo not drawn) [Example 33] |
| 32 | 51 | Cc1ccnc(N2CCN(CCc3c(C)n4c5c(c(C(O)C(C)C)ccc35)SCC4)CC2)c1 (stereo not drawn) [Example 89] |
| 57 | 24 | Cc1c(CCN2CCN(c3ccc(Br)cn3)CC2)c2cccc3c2n1CCC3 [Example 43] |
| 20 | 44 | CCCCCCCC1CCc2cccc3c(CCN4CCN(c5cc(C)ccn5)CC4)c(C)n1c23 (stereo not drawn) [Example 4, 4-n-heptyl-5,6-dihydro-2-methyl-1-{2-[4-(4-methylpyridin-2-yl)piperazin-1-yl]ethyl}-4H-pyrrolo[3,2,1-ij]-quinoline] |
| 24 | 69 | Cc1ccnc(N2CCN(CCc3c(C)n4c5c(cc(NC(=O)c6ccccc6)cc35)CCC4)CC2)c1 [Example 25, 8-Benzoylamino-5,6-dihydro-2-methyl-1-{2-[4-(4-methylpyridin-2-yl)piperazin-1-yl]-ethyl}-4H-pyrrolo[3,2,1-ij]quinoline] |
| 69 |  | Cc1ccnc(N2CCN(CCc3c(-c4ccc(F)cc4)n4c5c(cccc35)CCC4)CC2)c1 [Example 47] |
| 53 | 97 | Cc1ccnc(N2CCN(CCc3c(-c4ccc(OCCCCO)cc4)n4c5c(cccc35)CCC4)CC2)c1 [Example 12, 2-[4-(4-Hydroxybutyloxy)-phenyl]-1-{2-[4-(4-methylpyridin-2-yl)piperazin-1-yl]ethyl}-5,6-dihydro-4H-pyrrolo[3,2,1-ij]quinoline] |
| 64 | 94 | C=CCCC1CCc2cccc3c(CCN4CCN(c5cc(C)ccn5)CC4)c(C)n1c23 (stereo not drawn) [Example 62] |
| 5 | 55 | Cc1ccnc(N2CCN(CCc3c(C)n4c5c(cc(C(O)C(C)C)cc35)CCC4)CC2)c1 (stereo not drawn) [Example 19, 5,6-Dihydro-8-(1-hydroxy-2-methylpropyl)-2-methyl-1-{2-[4-(4-methylpyridin-2-yl)piperazin-1-yl]ethyl}-4H-pyrrolo-[3,2,1-ij]quinoline] |
| 68 | 89 | CC(C)=Cc1cc2c3c(c1)c(CCN1CCN(c4cc(C)ccn4)CC1)c(C)n3CCC2 [Example 26, 5,6-Dihydro-2-methyl-8-(2-methylprop-1-enyl)-1-{2-[4-(4-methylpyridin-2-yl)piperazin-1-yl]ethyl}-4H-pyrrolo[3,2,1-ij]quinoline] |
| 29 | 90 | CCCCC1CCc2cccc3c(CCN4CCN(c5cc(C)ccn5)CC4)c(C)n1c23 (stereo not drawn) [Example 73, 4-n-butyl-5,6-dihydro-2-methyl-1-{2-[4-(4-methylpyridin-2-yl)piperazin-1-yl]ethyl}-4H-pyrrolo[3,2,1-ij]quinoline] |
| 42 | 74 | Cc1ccnc(N2CCN(CCc3c(C)n4c5c(cc(Cc6ccccc6)cc35)CCC4)CC2)c1 [Example 77] |
| 43 | 80 | COc1ccc(C2CCc3cccc4c(CCN5CCN(c6cc(C)ccn6)CC5)c(C)n2c34)cc1 (stereo not drawn) [Example 59] |
| 19 | 62 | Cc1ccnc(N2CCN(CCc3c(C)n4c5c(cc(Br)cc35)CCC4)CC2)c1 [Example 9, 8-Bromo-2-methyl-1-{2-[4-(4-methylpyridin-2-yl)piperazin-1-yl]ethyl}-5,6-dihydro-4H-pyrrolo[3,2,1-ij]quinoline] |
| 43 | 94 | CCCCC1CCc2cc(C(=O)C(C)C)cc3c(CCN4CCN(c5cc(C)ccn5)CC4)c(C)n1c23 (stereo not drawn) [Example 23, 4-n-Butyl-5,6-dihydro-8-(2-methyl-1-oxopropyl)-2-methyl-1-{2-[4-(4-methylpyridin-2-yl)piperazin-1-yl]ethyl}-4H-pyrrolo[3,2,1-ij]quinoline] |
| 56 | 66 | Cc1ccnc(N2CCN(CCc3c(C)n4c5c(ccc(C(O)C(C)C)c35)SCC4)CC2)c1 (stereo not drawn) [Example 90] |
| 64 | 95 | Cc1ccnc(N2CCN(CCc3c(C)n4c5c(cc(CC(C)C)cc35)CCC4)CC2)c1 [Example 21, 5,6-Dihydro-2-methyl-8-(2-methylpropyl)-1-{2-[4-(4-methylpyridin-2-yl)piperazin-1-yl]ethyl}-4H-pyrrolo[3,2,1-ij]quinoline] |
| 42 | 0 | Cc1ccnc(N2CCN(CCc3c(C)n4c5c(cc(N)cc35)CCC4)CC2)c1 [Example 20, 8-Amino-5,6-dihydro-2-methyl-1-{2-[4-(4-methylpyridin-2-yl)piperazin-1-yl]ethyl}-4H-pyrrolo[3,2,1-ij]quinoline] |
| 36 | 66 | CC(=O)c1cc2c3c(c1)c(CCN1CCN(c4cc(C)ccn4)CC1)c(C)n3CCC2 [Example 67] |

| Structure (SMILES) | inhibition at 10 µM (cyclooxygenase) [%] | inhibition at 10 µM (5-lipoxygenase) [%] |
| --- | --- | --- |
| Cc1ccnc(N2CCN(CCc3c(C)n4c5c(cccc35)CCC4c3ccccc3)CC2)c1 (stereo not drawn) [Example 3, 5,6-dihydro-2-methyl-4-phenyl-1-{2-[4-(4-methylpyridine-2-yl)piperazin-1-yl]-ethyl}-4H-pyrrolo[3,2,1-ij]quinoline] | 20 | 37 |
| CCc1c(C(O)CN2CCN(c3cc(C)ccn3)CC2)c2cccc3c2n1CCC3 (stereo not drawn) [Example 14, 2-Ethyl-5,6-dihydro-1-{2-[4-(4-methylpyridin-2-yl)piperazin-1-yl]-1-hydroxyethyl}-4H-pyrrolo[3,2,1-ij]quinoline] | 25 | 55 |
| Cc1ccc(N2CCN(CCc3c(C)n4c5c(cccc35)CCC4)CC2)nc1 [Example 42] | 76 | 15 |
